Measurements reported in publication PMC5218480 (PLoS ONE, 2017).

Tested on: MV-4-11 cells
Experiment: Gene expression microarray analysis (Affymetrix PrimeView) and GSEA
Assay type: cell-based, human
Set-up: RFU PODN (11730768_x_at) / Fold change /veh PODN (11730768_x_at) / RFU LINC00158 (11744669_a_at) / Fold change /veh LINC00158 (11744669_a_at) / RFU DUSP10 (11751237_a_at) / Fold change /veh DUSP10 (11751237_a_at) / RFU ID3 (11757404_x_at) / Fold change /veh ID3 (11757404_x_at) / RFU PLEKHG5 (11737974_s_at) / Fold change /veh PLEKHG5 (11737974_s_at) / RFU LRRC4B (11730491_at) / Fold change /veh LRRC4B (11730491_at) / RFU GIMAP4 (11747438_a_at) / Fold change /veh GIMAP4 (11747438_a_at) / RFU KRT8 (11758183_x_at) / Fold change /veh KRT8 (11758183_x_at) / RFU CNN1 (11734310_a_at) / Fold change /veh CNN1 (11734310_a_at) / RFU VPS37D (11726825_at) / Fold change /veh VPS37D (11726825_at) / RFU C10orf10 (11716522_x_at) / Fold change /veh C10orf10 (11716522_x_at) / RFU KIR2DL2 /// KIR2DL4 /// KIR2DL5A /// KIR2DL5B /// KIR2DS1 /// KIR2DS2 /// KIR2DS3 /// KIR2DS4 /// KIR3DL3 /// KIR3DL3 /// KIR3DS1 (11738374_at) / Fold change /veh KIR2DL2 /// KIR2DL4 /// KIR2DL5A /// KIR2DL5B /// KIR2DS1 /// KIR2DS2 /// KIR2DS3 /// KIR2DS4 /// KIR3DL3 /// KIR3DL3 /// KIR3DS1 (11738374_at) / RFU C1QL1 (11718748_at) / Fold change /veh C1QL1 (11718748_at) / RFU TMPRSS4 (11747572_a_at) / Fold change /veh TMPRSS4 (11747572_a_at) / RFU HAMP (11756126_x_at) / Fold change /veh HAMP (11756126_x_at) / RFU RNFT2 (11725882_a_at) / Fold change /veh RNFT2 (11725882_a_at) / RFU NR4A2 (11747474_a_at) / Fold change /veh NR4A2 (11747474_a_at) / RFU ABCC12 (11746883_a_at) / Fold change /veh ABCC12 (11746883_a_at) / RFU TMEM136 (11760407_x_at) / Fold change /veh TMEM136 (11760407_x_at) / RFU CLDN22 /// WWC2 (11732394_at) / Fold change /veh CLDN22 /// WWC2 (11732394_at) / RFU HLA-DPB1 (11760878_x_at) / Fold change /veh HLA-DPB1 (11760878_x_at) / RFU SPINT1 (11716480_a_at) / Fold change /veh SPINT1 (11716480_a_at) / RFU GAP43 (11754022_s_at) / Fold change /veh GAP43 (11754022_s_at) / RFU A4GNT (11735810_at) / Fold change /veh A4GNT (11735810_at) / RFU PRB3 (11715151_x_at) / Fold change /veh PRB3 (11715151_x_at) / RFU TUBB4B (11761932_at) / Fold change /veh TUBB4B (11761932_at) / RFU CAPN14 (11732068_a_at) / Fold change /veh CAPN14 (11732068_a_at) / RFU TMCC2 (11721928_a_at) / Fold change /veh TMCC2 (11721928_a_at) / RFU IRGQ (11745062_a_at) / Fold change /veh IRGQ (11745062_a_at) / RFU FAM174B (11720279_a_at) / Fold change /veh FAM174B (11720279_a_at) / RFU TMPRSS4 (11748680_a_at) / Fold change /veh TMPRSS4 (11748680_a_at) / RFU FAM212B (11763350_a_at) / Fold change /veh FAM212B (11763350_a_at) / RFU PLEKHG5 (11743358_a_at) / Fold change /veh PLEKHG5 (11743358_a_at) / RFU ZSCAN30 (11745921_a_at) / Fold change /veh ZSCAN30 (11745921_a_at) / RFU CMKLR1 (11741424_a_at) / Fold change /veh CMKLR1 (11741424_a_at) / RFU LOC101060620 /// MAPK8IP1 (11723275_at) / Fold change /veh LOC101060620 /// MAPK8IP1 (11723275_at) / RFU SPTSSB (11747773_x_at) / Fold change /veh SPTSSB (11747773_x_at) / RFU PRSS12 (11739890_at) / Fold change /veh PRSS12 (11739890_at) / RFU BIN1 (11741810_x_at) / Fold change /veh BIN1 (11741810_x_at) / RFU WNT11 (11732464_a_at) / Fold change /veh WNT11 (11732464_a_at) / RFU C10orf10 (11716521_a_at) / Fold change /veh C10orf10 (11716521_a_at) / RFU C5orf56 (11738089_at) / Fold change /veh C5orf56 (11738089_at) / RFU CYB561 (11721691_x_at) / Fold change /veh CYB561 (11721691_x_at) / RFU ANKRD19P (11752326_a_at) / Fold change /veh ANKRD19P (11752326_a_at) / RFU OR2T12 /// OR2T33 /// OR2T8 (11738714_s_at) / Fold change /veh OR2T12 /// OR2T33 /// OR2T8 (11738714_s_at) / RFU VCAN (11748164_a_at) / Fold change /veh VCAN (11748164_a_at) / RFU JSRP1 (11732532_at) / Fold change /veh JSRP1 (11732532_at) / RFU KRTAP10-11 (11738290_x_at) / Fold change /veh KRTAP10-11 (11738290_x_at) / RFU MYO3A (11730013_a_at) / Fold change /veh MYO3A (11730013_a_at) / RFU EBF3 (11725865_a_at) / Fold change /veh EBF3 (11725865_a_at) / RFU CAMK2N1 (11719241_x_at) / Fold change /veh CAMK2N1 (11719241_x_at) / RFU C5orf56 (11738088_a_at) / Fold change /veh C5orf56 (11738088_a_at) / RFU OLFML3 (11715873_a_at) / Fold change /veh OLFML3 (11715873_a_at) / RFU LOC100653217 /// NTM (11731650_a_at) / Fold change /veh LOC100653217 /// NTM (11731650_a_at) / RFU MAPK11 (11762145_a_at) / Fold change /veh MAPK11 (11762145_a_at) / RFU FIZ1 (11724087_x_at) / Fold change /veh FIZ1 (11724087_x_at) / RFU OASL (11726364_x_at) / Fold change /veh OASL (11726364_x_at) / RFU SOX15 (11748057_x_at) / Fold change /veh SOX15 (11748057_x_at) / RFU CD79A (11719716_a_at) / Fold change /veh CD79A (11719716_a_at) / RFU HIST1H1D (11736915_at) / Fold change /veh HIST1H1D (11736915_at) / RFU CASKIN2 (11723855_a_at) / Fold change /veh CASKIN2 (11723855_a_at) / RFU LOC730098 (11760151_x_at) / Fold change /veh LOC730098 (11760151_x_at) / RFU OR4N2 (11742367_at) / Fold change /veh OR4N2 (11742367_at) / RFU PRRT2 (11749266_a_at) / Fold change /veh PRRT2 (11749266_a_at) / RFU SNX32 (11753110_a_at) / Fold change /veh SNX32 (11753110_a_at) / RFU CDHR5 (11726645_a_at) / Fold change /veh CDHR5 (11726645_a_at) / RFU RCAN1 (11760418_a_at) / Fold change /veh RCAN1 (11760418_a_at) / RFU FAM167A (11723789_a_at) / Fold change /veh FAM167A (11723789_a_at) / RFU FAM26E (11764081_at) / Fold change /veh FAM26E (11764081_at) / RFU ISYNA1 (11749810_s_at) / Fold change /veh ISYNA1 (11749810_s_at) / RFU ACY1 (11761880_at) / Fold change /veh ACY1 (11761880_at) / RFU 11764098_at / Fold change /veh 11764098_at / RFU SAMD14 (11745864_x_at) / Fold change /veh SAMD14 (11745864_x_at) / RFU NPB (11741838_a_at) / Fold change /veh NPB (11741838_a_at) / RFU TMPRSS6 (11731388_a_at) / Fold change /veh TMPRSS6 (11731388_a_at) / RFU KRTAP10-2 (11738614_at) / Fold change /veh KRTAP10-2 (11738614_at) / RFU ARHGAP8 /// PRR5-ARHGAP8 (11727945_x_at) / Fold change /veh ARHGAP8 /// PRR5-ARHGAP8 (11727945_x_at) / RFU KRTAP5-7 /// NADSYN1 (11734609_at) / Fold change /veh KRTAP5-7 /// NADSYN1 (11734609_at) / RFU RASL12 (11751679_a_at) / Fold change /veh RASL12 (11751679_a_at) / RFU CDKN2B (11736163_a_at) / Fold change /veh CDKN2B (11736163_a_at) / RFU PRF1 (11729649_at) / Fold change /veh PRF1 (11729649_at) / RFU, ZNF638 /// ZNF638-IT1 / Fold change vs veh, ZNF638 /// ZNF638-IT1 / RFU, PANK3 / Fold change vs veh, PANK3 / RFU, SH3YL1 / Fold change vs veh, SH3YL1 / RFU, ZEB2 / Fold change vs veh, ZEB2 / RFU, NRIP1 / Fold change vs veh, NRIP1 / RFU, PTTG1IP / Fold change vs veh, PTTG1IP / RFU, CAPN2 / Fold change vs veh, CAPN2 / RFU, MED14 / Fold change vs veh, MED14 / RFU, SNORA58 / Fold change vs veh, SNORA58 / RFU, C1orf63 / Fold change vs veh, C1orf63 / RFU, LRRFIP1 / Fold change vs veh, LRRFIP1 / RFU, NDUFAF7 / Fold change vs veh, NDUFAF7 / RFU, SLC12A2 / Fold change vs veh, SLC12A2 / RFU, IBTK / Fold change vs veh, IBTK / RFU, ESF1 / Fold change vs veh, ESF1 / Fold change vs veh, TMEM50B / RFU, TAOK1 / Fold change vs veh, TAOK1 / RFU, ACBD3 / Fold change vs veh, ACBD3 / RFU, TMA16 / Fold change vs veh, TMA16 / RFU, RWDD3 / Fold change vs veh, RWDD3 / RFU, BCAT1 / Fold change vs veh, BCAT1 / RFU, EDEM3 / Fold change vs veh, EDEM3 / RFU, TMEM33 / Fold change vs veh, TMEM33 / RFU, WDR75 / Fold change vs veh, WDR75 / RFU, AHCTF1 / Fold change vs veh, AHCTF1 / RFU, TFRC / Fold change vs veh, TFRC / RFU, ZDHHC17 / Fold change vs veh, ZDHHC17 / RFU, NOM1 / Fold change vs veh, NOM1 / RFU, ARL8B / Fold change vs veh, ARL8B / RFU, ZBTB11 / Fold change vs veh, ZBTB11 / RFU, TAMM41 / Fold change vs veh, TAMM41 / RFU, KIAA1704 /// LOC100996395 / Fold change vs veh, KIAA1704 /// LOC100996395 / RFU, ING1 / Fold change vs veh, ING1 / RFU, TRMT61B / Fold change vs veh, TRMT61B / RFU, FUBP3 / Fold change vs veh, FUBP3 / RFU, TP53 / Fold change vs veh, TP53 / RFU, TNKS2 / Fold change vs veh, TNKS2 / RFU, ZFP14 / Fold change vs veh, ZFP14 / RFU, ACTR2 / Fold change vs veh, ACTR2 / RFU, PPP3R1 / Fold change vs veh, PPP3R1 / RFU, PIK3R1 / Fold change vs veh, PIK3R1 / RFU, HNRNPA1 / Fold change vs veh, HNRNPA1 / RFU, RNF170 / Fold change vs veh, RNF170 / RFU, ZNF28 / Fold change vs veh, ZNF28 / RFU, RNGTT / Fold change vs veh, RNGTT / RFU, OGT / Fold change vs veh, OGT / RFU, BRD1 / Fold change vs veh, BRD1 / RFU, MARS / Fold change vs veh, MARS / RFU, ZNF655 / Fold change vs veh, ZNF655 / RFU, FAHD1 / Fold change vs veh, FAHD1 / RFU, BDP1 / Fold change vs veh, BDP1 / RFU, LRRCC1 / Fold change vs veh, LRRCC1 / RFU, ARID1A / Fold change vs veh, ARID1A / RFU, ZNF146 / Fold change vs veh, ZNF146 / RFU, ZNF330 / Fold change vs veh, ZNF330 / RFU, GPN3 / Fold change vs veh, GPN3 / RFU, C9orf123 / Fold change vs veh, C9orf123 / RFU, N4BP2L2 / Fold change vs veh, N4BP2L2 / RFU, ARFIP1 / Fold change vs veh, ARFIP1 / RFU, FAM179B / Fold change vs veh, FAM179B / RFU, BCL10 / Fold change vs veh, BCL10 / RFU, UHRF1BP1L / Fold change vs veh, UHRF1BP1L / RFU, BET1 / Fold change vs veh, BET1 / RFU, CNOT2 / Fold change vs veh, CNOT2 / RFU, ZNF268 / Fold change vs veh, ZNF268 / Fold change vs veh, ZNF507 / RFU, DGCR2 / Fold change vs veh, DGCR2 / RFU, WDSUB1 / Fold change vs veh, WDSUB1 / Fold change vs veh, HSP90B1 /// MIR3652 / RFU, ADSS / Fold change vs veh, ADSS / RFU, GK / Fold change vs veh, GK / RFU, ZNF148 / Fold change vs veh, ZNF148 / RFU, TAF9 / Fold change vs veh, TAF9 / RFU, SLC1A5 / Fold change vs veh, SLC1A5 / RFU, SLMO2 / Fold change vs veh, SLMO2 / RFU, ABCC4 / Fold change vs veh, ABCC4 / RFU, LOC101060439 /// RAP1B / Fold change vs veh, LOC101060439 /// RAP1B / RFU, RFX7 / Fold change vs veh, RFX7 / RFU, GTPBP10 / Fold change vs veh, GTPBP10 / RFU, CNEP1R1 / Fold change vs veh, CNEP1R1 / RFU, BIVM-ERCC5 /// ERCC5 / Fold change vs veh, BIVM-ERCC5 /// ERCC5 / RFU, ILF3 / Fold change vs veh, ILF3 / RFU 11762660_at / Fold change /veh 11762660_at / RFU VCAN (11757783_s_at) / Fold change /veh VCAN (11757783_s_at) / RFU DDX43 (11728927_at) / Fold change /veh DDX43 (11728927_at) / RFU KRT8 (11758188_x_at) / Fold change /veh KRT8 (11758188_x_at) / RFU NKD1 (11759106_at) / Fold change /veh NKD1 (11759106_at) / RFU SRD5A1 (11742802_a_at) / Fold change /veh SRD5A1 (11742802_a_at) / RFU TPSAB1 /// TPSB2 (11721975_s_at) / Fold change /veh TPSAB1 /// TPSB2 (11721975_s_at) / RFU GSTM3 (11746129_a_at) / Fold change /veh GSTM3 (11746129_a_at) / RFU IL23R (11737362_x_at) / Fold change /veh IL23R (11737362_x_at) / RFU TMEM51 (11727254_a_at) / Fold change /veh TMEM51 (11727254_a_at) / RFU PIWIL2 (11732686_x_at) / Fold change /veh PIWIL2 (11732686_x_at) / RFU ORM1 (11744905_x_at) / Fold change /veh ORM1 (11744905_x_at) / RFU CCDC152 (11743942_at) / Fold change /veh CCDC152 (11743942_at) / RFU ECM1 (11717891_a_at) / Fold change /veh ECM1 (11717891_a_at) / RFU IL23R (11748794_a_at) / Fold change /veh IL23R (11748794_a_at) / RFU TNFAIP8L3 (11732012_x_at) / Fold change /veh TNFAIP8L3 (11732012_x_at) / RFU MBOAT4 (11741988_at) / Fold change /veh MBOAT4 (11741988_at) / RFU 11764193_at / Fold change /veh 11764193_at / RFU TMEM53 (11763286_at) / Fold change /veh TMEM53 (11763286_at) / RFU MAGEB2 (11727129_at) / Fold change /veh MAGEB2 (11727129_at) / RFU TMEM200A (11744735_a_at) / Fold change /veh TMEM200A (11744735_a_at) / RFU CCDC152 (11751479_a_at) / Fold change /veh CCDC152 (11751479_a_at) / RFU FAM211A (11726209_a_at) / Fold change /veh FAM211A (11726209_a_at) / RFU RGS16 (11746705_a_at) / Fold change /veh RGS16 (11746705_a_at) / RFU VCAN (11755009_s_at) / Fold change /veh VCAN (11755009_s_at) / RFU RHOB (11743442_s_at) / Fold change /veh RHOB (11743442_s_at) / RFU RGS16 (11720943_a_at) / Fold change /veh RGS16 (11720943_a_at) / RFU RGS16 (11720944_at) / Fold change /veh RGS16 (11720944_at) / RFU, VPS4B / Fold change vs veh, VPS4B / RFU, CREB1 / Fold change vs veh, CREB1 / RFU, DNAJC13 / Fold change vs veh, DNAJC13 / RFU, GNAQ / Fold change vs veh, GNAQ / RFU, CDK5R1 / Fold change vs veh, CDK5R1 / RFU, ZRANB3 / Fold change vs veh, ZRANB3 / RFU, CUL4A / Fold change vs veh, CUL4A / RFU, CCNY / Fold change vs veh, CCNY / RFU, UFL1 / Fold change vs veh, UFL1 / RFU, COG3 / Fold change vs veh, COG3 / RFU, DIAPH2 / Fold change vs veh, DIAPH2 / RFU, SKA2 / Fold change vs veh, SKA2 / RFU, AFF3 / Fold change vs veh, AFF3 / RFU, LMF1 / Fold change vs veh, LMF1 / RFU, IPO11 / Fold change vs veh, IPO11 / RFU, DFFB / Fold change vs veh, DFFB / RFU, FOXP1 / Fold change vs veh, FOXP1 / RFU, CARD8 / Fold change vs veh, CARD8 / RFU, STRN3 / Fold change vs veh, STRN3 / RFU, ADK / Fold change vs veh, ADK / RFU, RASSF2 / Fold change vs veh, RASSF2 / RFU, WIPF1 / Fold change vs veh, WIPF1 / RFU, LARP1B / Fold change vs veh, LARP1B / RFU, RASA1 / Fold change vs veh, RASA1 / RFU, RB1 / Fold change vs veh, RB1 / RFU, PPFIA1 / Fold change vs veh, PPFIA1 / RFU, MAT2A / Fold change vs veh, MAT2A / RFU, CCT5 / Fold change vs veh, CCT5 / RFU, WDR92 / Fold change vs veh, WDR92 / RFU, CUX1 / Fold change vs veh, CUX1 / RFU, TTC7A / Fold change vs veh, TTC7A / RFU, TMEM135 / Fold change vs veh, TMEM135 / RFU, DEPTOR / Fold change vs veh, DEPTOR / RFU, CPM / Fold change vs veh, CPM / RFU, DNAJB6 / Fold change vs veh, DNAJB6 / RFU, CACNA2D3 / Fold change vs veh, CACNA2D3 / RFU, DTX4 / Fold change vs veh, DTX4 / RFU, TFCP2 / Fold change vs veh, TFCP2 / RFU, GMCL1 /// GMCL1P1 / Fold change vs veh, GMCL1 /// GMCL1P1 / RFU, AEBP2 / Fold change vs veh, AEBP2 / RFU, SNHG1 /// SNORD22 /// SNORD25 /// SNORD26 /// SNORD27 /// SNORD28 /// SNORD29 /// SNORD31 / Fold change vs veh, SNHG1 /// SNORD22 /// SNORD25 /// SNORD26 /// SNORD27 /// SNORD28 /// SNORD29 /// SNORD31 / Fold change (Aza/veh), C12orf56 (ProbeSet 11735607_a_at) / Fold change (ACY-1035/veh), C12orf56 (ProbeSet 11735607_a_at) / Fold change (Aza/veh), FGFR1OP (ProbeSet 11751329_s_at) / Fold change (ACY-1035/veh), FGFR1OP (ProbeSet 11751329_s_at) / Fold change (Aza/veh), VPS36 (ProbeSet 11739960_a_at) / Fold change (ACY-1035/veh), VPS36 (ProbeSet 11739960_a_at) / RFU SYPL1 (11715823_x_at) / Fold change /veh SYPL1 (11715823_x_at) / RFU IGFBP7 (11715501_s_at) / Fold change /veh IGFBP7 (11715501_s_at) / RFU REEP3 (11722064_at) / Fold change /veh REEP3 (11722064_at) / RFU IGLL1 (11728026_x_at) / Fold change /veh IGLL1 (11728026_x_at): dose or concentration left out as unconfirmed
Settings: MV-4-11 cells, 48 hours

Structure (SMILES): Nc1ccc(-c2cccs2)cc1NC(=O)c1ccc2c(c1)cc(C1CC1)n2CCN1CCOCC1 [ACY-1035]
- RFU HIST1H1D (11736915_at): 13.65 RFU
